# Data taken from US6514510B1, “Insecticidal and miticidal compositions” (BASF Aktiengesellschaft, priority 1996, dated 2003).
# Tests used:
# [1] = tested on: Kanzawa spider mite (Tetranychus kanzawai kishida) which are resistant to Compound A; assay: Miticidal effect against female imagines of Kanzawa spider mite resistant to Compound A (leaf disk spray test); conditions: for LC50 (ppm): single active ingredient, female imago, Compound A-resistant colony, mortality two days after spray treatment, probit method
# Procedure: Round leaf disks (2 cm diameter) are cut out of a first leaf of kidney bean by using a leaf punch and 4 sheets of the leaf disks are placed on wet sanitary cotton on a PVC cup of 8 cm diameter.
# Each PVC cup is sprayed with 3.5 ml of the test solution by using a rotary spray tower (manufactured by Mizuho Scientific Co., Ltd.) and stored in a constant temperature chamber held at 25±° C. (32 individuals are tested per concentration, 4-5 concentrations are evaluated per formulation and 2 performances are repeated). Two days after treatment, the number of living and dead female imagines of Kanzawa spider mite (Tetranychus kanzawai kishida) on the leaf disk is investigated and the mortality (%) is calculated according to the formula shown hereinbelow. From these mortality data, the LC50 values are obtained by conventional probit method. [formula]
# For the above-mentioned values larger than 100, the larger value indicates a stronger synergistic action. For the value equal to 100, an additive action is indicated. For the values less than 100, the lesser value indicates a larger antagonistic action. A more detailed description of the calculation of the co-toxicity coefficient by the above-mentioned Sun and Johnson's method is the following. […] [formula]
# [2] = tested on: susceptible strain of spider mite; assay: Effect of Compound A against a susceptible strain of spider mite; assay type: in vivo; conditions: not mentioned in the table
SMILES,LC50 (ppm) [1],"resistance against Compound A ([1]; resistant strain versus susceptible strain, LC50 values)",LC50 value [2]
"Cc1c(COC(=O)[C@@H]2[C@H](/C=C(\Cl)C(F)(F)F)C2(C)C)cccc1-c1ccccc1 (racemic) [Bifenthrin, 2-methylbiphenyl-3-ylmethyl (Z)-(1RS,3RS)-3-(2-chloro-3,3,3-trifluoroprop-1-enyl)-2,2-dimethylcyclopropanecar-boxylate]",20 ppm,,
"CC1(C)C(C=C(Cl)Cl)C1C(=O)OC(C#N)c1ccc(F)c(Oc2ccccc2)c1 (racemic) [Cyfluthrin, (RS)-α-cyano4-fluoro-3-phenoxybenzyl (1RS,3RS; 1RS,3SR)-3-(2,2-dichlorovinyl)-2,2-dimethylcyclopropanecarboxylate]",1500 ppm,,
"CC1(C)[C@H](C(=O)O[C@@H](C#N)c2cccc(Oc3ccccc3)c2)[C@@H]1/C=C(\Cl)C(F)(F)F (racemic) [Cyhalothrin, (RS)-α-cyano-3-phenoxybenzyl (Z)-(1RS,3RS)-3-(2-chloro-3,3,3-trifluoropropenyl)-2,2-dimethylcyclopropanecarboxylate]",590 ppm,,
"CC1(C)C(C=C(Cl)Cl)C1C(=O)OC(C#N)c1cccc(Oc2ccccc2)c1 (racemic) [Cypermethrin, (RS)-α-cyano-3-phenoxybenzyl (1RS,3RS,1RS,3RS)-3-(2,2-dichlorovinyl)-2,2-dimethylcyclopro-panecarboxylate]",2500 ppm,,
"CC1(C)C(C(=O)OC(C#N)c2cccc(Oc3ccccc3)c2)C1(C)C (racemic) [Fenpropathrin, (RS)-α-cyano-3-phenoxybenzyl 2,2,3,3-tetramethyl-cyclopropanecarboxylate]",290 ppm,,
"CCOCn1c(-c2ccc(Cl)cc2)c(C#N)c(Br)c1C(F)(F)F [Compound A, 4-bromo-2-(4-chlorophenyl)-1-(ethoxymethyl)-5-(trifluoromethyl)-pyrrole-3-carbonitrile]",1500 ppm,~300 fold,about 5 ppm
"CCOc1ccc(C(C)(C)COCc2cccc(Oc3ccccc3)c2)cc1 [Ethofenprox, 2-(4-ethoxyphenyl)-2-methylpropyl 3-phenoxybenzyl ether]",620 ppm,,
"CC(C)[C@H](Nc1ccc(C(F)(F)F)cc1Cl)C(=O)OC(C#N)c1cccc(Oc2ccccc2)c1 (stereo partly drawn) [Fluvalinate, (RS)-α-cyano-3-phenoxy-benzyl N-(2-chloro-α,α,α,α-trifluoro-p-tolyl)-D-valinate]",180 ppm,,
"CC1(C)C(C=C(Cl)Cl)C1C(=O)OCc1cccc(Oc2ccccc2)c1 (stereo not drawn) [Permethrin, 3-phenoxybenzyl (1RS,3RS; 1RS,3RS)-3-(2,2-dichlorovinyl)-2,2-dimethylcyclopropanecarboxylate]",440 ppm,,
